Results as given in patent publication US6872850B2, “Small molecule inhibitors of secretion of proteins encoded by ARE-mRNAs” (Message Pharmaceuticals, priority 2001, dated 2005).
Structures can show the parent of a compound that is named as a salt.

What was measured:
[1] = test system: TNFα; test: ELISA of TNFα secreted into the media after LPS; format: cell-based; details: for effect on amount of secreted TNFα (direct TNFα secretion assay), in words: after LPS stimulation
Outline: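 Candidate compounds were tested directly for their ability to lower the amount of TNFα that cells secrete. A standard ELISA quantified TNFα released into the culture media. Each compound's effect is given as a percentage of the TNFα secreted by control cells that received only DMSO vehicle.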

[2] = test system: 3′ UTR of the TNFα gene; test: cell-based luciferase reporter assay, 5B cell line (luciferase gene with entire 3′ UTR of the TNFα gene); set-up: species or system mouse; details: for Luciferase 5B (% of DMSO control): 1 h, then LPS, 5B cell line
[3] = test system: control cell line 3B (Raw 264.7, CMV-luciferase); test: luciferase reporter assay, control 3B cell line (luciferase without 3′ UTR of TNFα); format: cell-based, mouse
Procedure: The candidate compounds were tested in a high-throughput, cell-based luciferase reporter assay. For this assay, a commercially available mouse macrophage Raw 264.7 cell line was stably transfected with a construct containing the CMV promoter operably linked to the luciferase gene which was modified using standard molecular biology techniques to contain the entire 3′ UTR of the TNFα gene. This 3′ UTR is important for the stability and translation of TNFα in cells. To control for effects of candidate compounds that are not specific for TNFα, a control cell line, called “3B,” was generated by stably transfecting the 264.7 cell line with a commercially available construct containing the luciferase gene (without the addition of the heterologous 3′ UTR of the TNFα gene) under the regulation of the CMV promoter.
Both the 3B and 5B cell lines were incubated in the presence of 10 μM of a candidate compound for one hour. Then, lipopolysaccharide (LPS) was added to stimulate TNFα secretion. Luciferase activity was measured by determining the luminescence intensity due to the reaction of lucifern, ATP, Mg^2+, and molecular O2 (see, for example, Ausubel et al., supra). The luciferase activity in a cell incubated with a candidate compound was reported as a percentage of the luciferase activity for the corresponding cell incubated with DMSO vehicle only. […]

[4] = 10 μM compound, ratio of 5B to control 3B cell line

Compound	effect on amount of secreted TNFα (direct TNFα secretion assay), in words [1]	effect on luciferase activity in the 5B cell line (luciferase assay), in words [2]	TNFα Secretion (% of DMSO control) ([1]; 10 μM compound, 1 h, then LPS)	Luciferase 5B (% of DMSO control) ([2]; 10 μM compound)	Luciferase 5B/3B (% of DMSO control 5B)/(% of DMSO control 3B) [2, 4]	further results
C/C(=N\NC(=N)N)c1ccc(C(=O)N[C@@H](Cc2ccccc2)C(=O)NCCNC(=O)[C@H](Cc2ccccc2)NC(=O)c2ccc(/C(C)=N/NC(=N)N)cc2)cc1 [MES 10094, (E,E)-Bisguanylhydrazone of 1-[(S)-N-(4-Acetylbenzoyl)-2-amino-3-phenylpro-panoyl]-4-[(S)-N-(4-acetylbenzoyl)-2-amino-3-phenylpropanoyl]-1,4-diaza-butane bis hydrochloride]	inhibited TNFα secretion	strongly inhibited				effect on luciferase activity in the 3B control cell line, in words [3]: only weakly inhibited
C/C(=N\N=C(N)N)c1cccc(C(=O)NCCNC(=O)[C@H](Cc2ccccc2)NC(=O)c2ccc(/C(=N/N=C(N)N)c3ccccc3)cc2)c1.O=C(O)C(F)(F)F.O=C(O)C(F)(F)F [MES 10091, (E,E)-Bisguanylhydrazone of 1-[(S)-N-(4-benzoylbenzoyl)-2-amino-3-phenylpropanoyl]-4-(3-acetylbenzoyl)-1,4-diazabutane bis trifluoroacetate]						TNFα Secretion (% of DMSO control) ([1]; 1 μM compound (Table 11)): 97 % of DM80 control; TNFα Secretion (% of DMSO control) ([1]; 3 μM compound (Table 11)): 41 % of DM80 control; TNFα Secretion (% of DMSO control) ([1]; 10 μM compound (Table 11)): 22 % of DM80 control; Luciferase 5B/3B (% of DMSO control 5B)/(% of DMSO control 3B) ([2]; 1 μM compound (Table 11)): 113 (% of DMSO control 5B)/(% of D; Luciferase 5B/3B (% of DMSO control 5B)/(% of DMSO control 3B) ([2]; 3 μM compound (Table 11)): 68 (% of DMSO control 5B)/(% of D; Luciferase 5B/3B (% of DMSO control 5B)/(% of DMSO control 3B) ([2]; 10 μM compound (Table 11)): 73 (% of DMSO control 5B)/(% of D
CCCCC(NC(=O)c1cccc(C(C)=NNC(=N)N)c1)C(=O)N1CCN(C(=O)C(Cc2ccccc2)NC(=O)c2ccc(C(=NNC(=N)N)c3ccccc3)cc2)CC1 (mixture of isomers) [MES 10185]		inhibited TNFα secretion	37 % of DMSO control	31 % of DMSO control	35 (% of DMSO control 5B)/(% of DMSO control 3B)	
(Z,Z)-Bisguanylhydrazone of 1-[(S)-N-(4-benzoylbenzoyl)-2-amino-3-phenylpropanoyl]-4-[(2S)-N-(4-benzoylbenzoyl)-2-amino-4-methylpentanoyl]-1,4-piperazine bis trifluoroacetate [MES 10165]	inhibited TNFα secretion	inhibited TNFα secretion	36 % of DMSO control	37 % of DMSO control	63 (% of DMSO control 5B)/(% of DMSO control 3B)	
CC(=NNC(=N)N)c1ccc(C(=O)NC(Cc2ccccc2)C(=O)N2CCN(C(=O)C(CC(C)C)NC(=O)c3cccc(C(C)=NNC(=N)N)c3)CC2)cc1 (mixture of isomers) [MES 11452]	decreased the amount of secreted TNFα		88 % of DMSO control	13 % of DMSO control	50 (% of DMSO control 5B)/(% of D	
(E,E)-Bisguanylhydrazone of 1-[(S)-N-(4-benzoylbenzoyl)-2-amino-3-phenylpropanoyl]-4-[(2S)-N-(3-acetylbenzoyl)-2-amino-4-methylpentanoyl]-1,4-piperazine bis trifluoroacetate [MES 10171]			57 % of DMSO control	20 % of DMSO control	24 (% of DMSO control 5B)/(% of DMSO control 3B)	
CC(C)CC(NC(=O)c1ccc(C(=NNC(=N)N)c2ccccc2)cc1)C(=O)N1CCN(C(=O)C(CCc2ccccc2)NC(=O)c2ccc(C(=NNC(=N)N)c3ccccc3)cc2)CC1 (mixture of isomers) [MES 10194]			22 % of DMSO control	34 % of DMSO control	49 (% of DMSO control 5B)/(% of DMSO control 3B)	
CC(C)CC(NC(=O)c1ccc(C(=NNC(=N)N)c2ccccc2)cc1)C(=O)N1CCN(C(=O)C(Cc2ccccc2)NC(=O)c2ccccc2)CC1 (mixture of isomers) [MES 10231]			49 % of DMSO control	34 % of DMSO control	33 (% of DMSO control 5B)/(% of D	
C/C(=N\NC(=N)N)c1cccc(C(=O)N[C@@H](CC(C)C)C(=O)N2CCN(C(=O)[C@H](Cc3ccccc3)NCc3ccccc3)CC2)c1 [MES 10241]			100 % of DMSO control	68 % of DMSO control	90 (% of DMSO control 5B)/(% of D	
C/C(=N\NC(=N)N)c1cccc(C(=O)N[C@@H](CC(C)C)C(=O)N2CCN(C(=O)[C@H](Cc3ccccc3)NCc3ccc(-c4ccccc4)cc3)CC2)c1 [MES 10244]			48 % of DMSO control	46 % of DMSO control	36 (% of DMSO control 5B)/(% of D	
